By IC50 is commonly meant the midpoint of a concentration-inhibition curve.

Consider 28 compounds from patent US20260035340A1, “INHIBITORS OF AKR1C3 AND METHODS OF USE” (BOARD OF REGENTS OF THE UNIVERSITY OF NEBRASKA, priority 2022, published 2026).

Common to all, as to format: biochemical
The target in one experiment is AKR1C3 (Homo sapiens (Human), UniProt P42330). Kind of experiment: AKR enzyme inhibition assay, NADP+ dependent oxidation of S-tetralol, AKR1C3. The following applies: for Selectivity 1C2:1C3: ratio of AKR1C2 to AKR1C3 IC50; for selectivity over AKR1C2: AKR1C3 over AKR1C2.
AKR1C3, sequence (P42330 whole entry): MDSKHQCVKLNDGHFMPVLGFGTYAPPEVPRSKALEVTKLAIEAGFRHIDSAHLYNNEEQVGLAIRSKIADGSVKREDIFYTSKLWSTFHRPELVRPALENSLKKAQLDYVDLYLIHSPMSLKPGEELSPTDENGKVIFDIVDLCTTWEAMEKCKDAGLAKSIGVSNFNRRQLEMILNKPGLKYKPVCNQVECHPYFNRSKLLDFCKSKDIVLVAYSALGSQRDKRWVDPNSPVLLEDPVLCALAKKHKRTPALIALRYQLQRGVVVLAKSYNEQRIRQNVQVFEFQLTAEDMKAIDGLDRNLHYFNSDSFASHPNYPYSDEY
Another experiment deals with AKR1C1 (Homo sapiens (Human), UniProt Q04828). Kind of experiment: AKR enzyme inhibition assay, NADP+ dependent oxidation of S-tetralol, AKR1C1. Conditions: Table 2; recombinant enzyme, S-tetralol at Km; read-out: IC50 ± SD AKR1C1.
AKR1C1, sequence (Q04828 whole entry): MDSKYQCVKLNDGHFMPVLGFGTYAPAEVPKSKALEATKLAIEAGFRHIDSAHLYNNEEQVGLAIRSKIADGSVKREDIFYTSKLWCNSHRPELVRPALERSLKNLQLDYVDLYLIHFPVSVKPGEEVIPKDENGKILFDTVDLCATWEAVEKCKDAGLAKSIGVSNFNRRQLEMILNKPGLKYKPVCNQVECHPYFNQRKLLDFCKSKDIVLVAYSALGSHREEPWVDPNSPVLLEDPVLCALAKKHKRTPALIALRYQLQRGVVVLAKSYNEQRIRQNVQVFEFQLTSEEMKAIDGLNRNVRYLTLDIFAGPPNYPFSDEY
The target of a further experiment is AKR1C2 (Homo sapiens (Human), UniProt P52895). Description: AKR enzyme inhibition assay, NADP+ dependent oxidation of S-tetralol, AKR1C2 counter-screen. (In general: A counterscreen serves to expose hits that act by an unwanted route or on another target.)
AKR1C2, sequence (P52895 whole entry): as the sequence (Q04828 whole entry) above, with T38V, R47H, L54V, C87S, V151M, R170H, Q172L counted along it
A further experiment has as its target AKR1C4 (Homo sapiens (Human), UniProt P17516). Description: AKR enzyme inhibition assay, AKR1C4. The following applies: Table 2; recombinant enzyme; read-out: IC50 ± SD AKR1C4.
Setting [1] is: Table 2, recombinant enzyme, S-tetralol at Km, read-out: IC50 ± SD AKR1C3.
[2] abbreviates: Table 2, recombinant enzyme, S-tetralol at Km, read-out: IC50 ± SD AKR1C2.
The mark [3] stands for this setting: Table 3, compounds of formula (A4), read-out: IC50 AKR1C3.
Where [4] appears, read: Table 4, compounds of formula (A3), read-out: IC50 AKR1C3.

Read-outs that look alike come from different tables or passages of the source.

AKR1C4, sequence (P17516 whole entry): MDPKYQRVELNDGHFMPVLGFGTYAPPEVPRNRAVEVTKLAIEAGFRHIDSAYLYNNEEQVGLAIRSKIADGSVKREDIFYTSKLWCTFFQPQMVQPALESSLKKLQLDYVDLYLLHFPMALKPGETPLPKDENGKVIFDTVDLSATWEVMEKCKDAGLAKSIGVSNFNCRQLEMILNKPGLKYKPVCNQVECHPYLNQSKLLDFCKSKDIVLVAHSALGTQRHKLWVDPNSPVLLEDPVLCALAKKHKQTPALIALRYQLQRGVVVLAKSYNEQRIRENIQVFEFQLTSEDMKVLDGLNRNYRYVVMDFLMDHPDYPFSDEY
Experimental for AKR1C1: (§1) Assay of enzyme activity: The dehydrogenase activities of AKR1C1, AKR1C2, and AKR1C3 were determined by measuring the formation of NADH formation at 340 nm using Beckman DU640 spectrophotometer. […] After continuously monitoring for 5 min, the increase in UV absorption using different concentrations of enzyme were recorded to calculate the initial velocity and determine enzyme specific activity. IC50 value determination: The inhibitory potency for each compound was represented by IC50 value and measured as described before. […] The concentration of S-tetralol used in the assays for each AKR1C isoform was equal to the Km value for the respective enzyme so that IC50 values could be directly compared assuming a competitive pattern of inhibition. […] In this equation, “range” is the fitted uninhibited value minus the “background”, and “S” is a slope factor. “I” is the concentration of inhibitor. The equation assumes that y falls with increasing “I”.
Experimental for AKR1C2: (§2) Structure-Activity Relationship: The ability of compounds to inhibit AKR1C3 in the first instance were determined by measuring the NADP+ dependent oxidation of S-tetralol catalyzed by recombinant enzyme as described herein. […] Assay of enzyme activity: The dehydrogenase activities of AKR1C1, AKR1C2, and AKR1C3 were determined by measuring the formation of NADH formation at 340 nm using Beckman DU640 spectrophotometer. […] After continuously monitoring for 5 min, the increase in UV absorption using different concentrations of enzyme were recorded to calculate the initial velocity and determine enzyme specific activity. IC50 value determination: The inhibitory potency for each compound was represented by IC50 value and measured as described before. […] The concentration of S-tetralol used in the assays for each AKR1C isoform was equal to the Km value for the respective enzyme so that IC50 values could be directly compared assuming a competitive pattern of inhibition. […] In this equation, “range” is the fitted uninhibited value minus the “background”, and “S” is a slope factor. “I” is the concentration of inhibitor. The equation assumes that y falls with increasing “I”.
Experimental for AKR1C3: as §2
Experimental for AKR1C4: as §1

As to `COC(=O)/C=C/c1cc(Br)cc(C(=O)NCc2ccc(C)cc2)c1` [Compound 3], the concentration for half-maximal inhibition (IC50) on AKR1C3 (read-out: IC50 AKR1C3) was determined as 200 nM.
On to `CC(C)=CCOc1cc(/C=C/C(=O)O)cc(C(=O)NCc2ccc(C)cc2)c1` [Compound 10, (E)-3-(3-((4-Methylbenzyl)carbamoyl)-5-((3-methylbut-2-en-1-yl)oxy)phenyl)acrylic acid], for which the “Selectivity 1C2:1C3” value on AKR1C3 (Table 2) came out at 187. Moreover, the IC50 stood at 80 ± 10 nM on AKR1C3 (setting [1]), 52000 ± 7000 nM at AKR1C1, 15000 ± 2400 nM on AKR1C2 (setting [2]) and 31000 ± 5000 nM at AKR1C4.
Turning to `Cc1ccc(CNC(=O)c2cc(Br)cc(/C=C/C(=O)O)c2)cc1` [Compound 11, (E)-3-(3-Bromo-5-((4-methylbenzyl)carbamoyl)phenyl)acrylic acid], the “Selectivity 1C2:1C3” value at AKR1C3 (Table 2) was more than 333. Also, the values for the IC50 at AKR1C3 (setting [1]), at AKR1C2 (setting [2]) and on AKR1C4 were 300 ± 10 nM, more than 100000 nM and 40000 ± 1300 nM, respectively.
Regarding `Cc1ccc(CNC(=O)c2cc(Br)cc(/C=C/C(N)=O)c2)cc1` [Compound 12, (E)-3-(3-Amino-3-oxoprop-1-en-1-yl)-5-bromo-N-(4-methylbenzyl)benzamide], the IC50 on AKR1C3 (setting [3]) is 28000 ± 2900 nM.
Consider `Cc1ccc(CNC(=O)c2cc(/C=C/C(N)=O)cc(-c3ccc(Oc4ccccc4)cc3)c2)cc1` [Compound 13, (E)-5-(3-Amino-3-oxoprop-1-en-1-yl)-N-(4-methylbenzyl)-4′-phenoxy-[1,1′-biphenyl]-3-carboxamide], for which the IC50 at AKR1C3 (read-out: IC50 AKR1C3) is 2700 nM.
On to `Cc1ccc(CNC(=O)c2cc(Br)cc(/C=C/C(=O)N(C)C)c2)cc1` [Compound 14, (E)-3-Bromo-5-(3-(dimethylamino)-3-oxoprop-1-en-1-yl)-N-(4-methylbenzyl)benzamide], for which the “increased activity over terminal primary amide 12” value on AKR1C3 (AKR1C3 inhibition) is more than 66 fold. Also, the IC50 at AKR1C3 (read-out: IC50 AKR1C3) was 400 nM.
For `Cc1ccc(CNC(=O)c2cc(Br)cc(/C=C/C#N)c2)cc1` [Compound 15, (E)-3-Bromo-5-(2-cyanovinyl)-N-(4-methylbenzyl)benzamide], the IC50 on AKR1C3 (read-out: IC50 AKR1C3) came out at 170 nM.
With `Cc1ccc(CNC(=O)c2cc(/C=C/C#N)cc(-c3ccc(Oc4ccccc4)cc3)c2)cc1` [Compound 16a, (E)-5-(2-Cyanovinyl)-N-(4-methylbenzyl)-4′-phenoxy-[1,1′-biphenyl]-3-carboxamide], the IC50 on AKR1C3 (setting [3]) was determined as 1400 ± 300 nM; on AKR1C3 (read-out: IC50 AKR1C3), 1400 nM.
For `CC(C)=CCc1cc(/C=C/C#N)cc(C(=O)NCc2ccc(C)cc2)c1` [Compound 16b, (E)-3-(2-Cyanovinyl)-N-(4-methylbenzyl)-5-(3-methylbut-2-en-1-yl)benzamide] the same measures were 2700 ± 370 nM and 2700 nM.
Consider `CC[C@@H](NC(=O)c1cc(/C=C/C(=O)O)cc(-c2ccc(C(C)C)cc2)c1)c1ccccc1` [Compound 20a, (R,E)-3-(4′-Isopropyl-5-((1-phenylpropyl)carbamoyl)-[1,1′-biphenyl]-3-yl)acrylic acid], for which the IC50 on AKR1C3 (setting [4]) is 120 ± 14 nM; on AKR1C2 (Table 4, compounds of formula (A3), read-out: IC50 AKR1C2), 6000 ± 1400 nM. Moreover, the “Selectivity 1C2:1C3” value on AKR1C3 (Table 4) was 51.
As for `CC[C@@H](NC(=O)c1cc(/C=C/C(=O)O)cc(-c2ccc(Oc3ccccc3)cc2)c1)c1ccccc1` [Compound 20b, (R,E)-3-(4′-Phenoxy-5-((1-phenylpropyl)carbamoyl)-[1,1′-biphenyl]-3-yl)acrylic acid], on AKR1C3 (setting [4]), the IC50 came to 260 ± 16.6 nM.
As for `Cc1ccc(CNC(=O)c2cc(/C=C/C(=O)O)cc(-c3ccccc3)c2)cc1` [Compound A1-a, (E)-3-(5-((4-Methylbenzyl)carbamoyl)-[1,1′-biphenyl]-3-yl)acrylic acid], at AKR1C3, the “selectivity over AKR1C2” value is more than 2320 fold. For the same compound, the “Selectivity 1C2:1C3” value on AKR1C3 (Table 2) is reported as more than 2500. The IC50 was 40 nM on AKR1C3 (read-out: IC50 AKR1C3), more than 100000 nM on AKR1C1, more than 100000 nM on AKR1C2 (setting [2]) and 21000 ± 2500 nM on AKR1C4.
In the case of `C/C=C\Cc1cc(/C=C/C(=O)O)cc(C(=O)NCc2ccc(C)cc2)c1` [Compound A1-aa, (E)-3-(3-((Z)-but-2-en-1-yl)-5-((4-methylbenzyl)carbamoyl)phenyl)acrylic acid], the “selectivity over AKR1C2” value at AKR1C3 worked out at 200 fold. The half-inhibitory concentration (IC50) at AKR1C3 (setting [1]) amounted to 80 ± 4 nM; at AKR1C1, 81000 ± 5100 nM; at AKR1C2 (setting [2]) it was 16000 ± 2500 nM; on AKR1C4 it was 25000 ± 3100 nM.
For the compound `Cc1ccc(CNC(=O)c2cc(/C=C/C(=O)O)cc(-c3ccc(Br)cc3)c2)cc1` [Compound A1-b, (E)-3-(4′-Bromo-5-((4-methylbenzyl)carbamoyl)-[1,1′-biphenyl]-3-yl)acrylic acid], the IC50 at AKR1C3 (read-out: IC50 AKR1C3) is 90 nM; at AKR1C1 it was 107000 ± 8000 nM; on AKR1C2 (setting [2]) it was 25000 ± 7000 nM; on AKR1C4, 6500 ± 600 nM.
With `Cc1ccc(CNC(=O)c2cc(C#CC3CC3)cc(/C=C/C(=O)O)c2)cc1` [Compound A1-bb, (E)-3-(3-(Cyclopropylethynyl)-5-((4-methylbenzyl)carbamoyl)phenyl)acrylic acid], the “selectivity over AKR1C2” value on AKR1C3 stood at 74 fold. In addition, the IC50 stood at 500 ± 40 nM at AKR1C3 (setting [1]) and 37000 ± 9600 nM on AKR1C2 (setting [2]).
On to `Cc1ccc(CNC(=O)c2cc(/C=C/C(=O)O)cc(-c3ccc(Cl)cc3)c2)cc1` [Compound A1-c, (E)-3-(4′-Chloro-5-((4-methylbenzyl)carbamoyl)-[1,1′-biphenyl]-3-yl)acrylic acid], for which, at AKR1C3 (Table 2), the “Selectivity 1C2:1C3” value is listed as 333. In addition, the IC50 is 60 ± 7 nM on AKR1C3 (setting [1]), more than 100000 nM at AKR1C1, 20000 ± 9000 nM on AKR1C2 (setting [2]) and 6000 ± 500 nM on AKR1C4.
Turning to `Cc1ccc(CNC(=O)c2cc(/C=C/C(=O)O)cc(-c3ccc(F)cc3)c2)cc1` [Compound A1-d, (E)-3-(4′-Fluoro-5-((4-methylbenzyl)carbamoyl)-[1,1′-biphenyl]-3-yl)acrylic acid], on AKR1C3 (Table 2), the “Selectivity 1C2:1C3” value was found to be 600. The IC50 is 60 nM on AKR1C3 (read-out: IC50 AKR1C3), more than 100000 nM at AKR1C1, 36000 ± 4000 nM on AKR1C2 (setting [2]) and 8000 ± 1200 nM at AKR1C4.
Consider `Cc1ccc(CNC(=O)c2cc(/C=C/C(=O)O)cc(-c3ccc(F)cc3F)c2)cc1` [Compound A1-g, (E)-3-(2′,4′-Difluoro-5-((4-methylbenzyl)carbamoyl)-[1,1′-biphenyl]-3-yl)acrylic acid], for which, at AKR1C3 (read-out: IC50 AKR1C3), the IC50 was 130 nM.
On to `Cc1ccc(CNC(=O)c2cc(/C=C/C(=O)O)cc(-c3ccc(C(F)(F)F)cc3)c2)cc1` [Compound A1-h, (E)-3-(5-((4-Methylbenzyl)carbamoyl)-4′-(trifluoromethyl)-[1,1′-biphenyl]-3-yl)acrylic acid], for which the IC50 at AKR1C3 (setting [1]) is 200 ± 20 nM.
The same measure, in the same setting: the result for `CCc1ccc(-c2cc(/C=C/C(=O)O)cc(C(=O)NCc3ccc(C)cc3)c2)cc1` [Compound A1-j, (E)-3-(4′-Ethyl-5-((4-methylbenzyl)carbamoyl)-[1,1′-biphenyl]-3-yl)acrylic acid] reads 190 ± 10 nM.
In the case of `Cc1ccc(CNC(=O)c2cc(/C=C/C(=O)O)cc(-c3ccc(C(C)C)cc3)c2)cc1` [Compound A1-k, (E)-3-(4′-Isopropyl-5-((4-methylbenzyl)carbamoyl)-[1,1′-biphenyl]-3-yl)acrylic acid], the IC50 at AKR1C3 (read-out: IC50 AKR1C3) was found to be 190 nM.
Turning to `COc1ccc(-c2cc(/C=C/C(=O)O)cc(C(=O)NCc3ccc(C)cc3)c2)cc1` [Compound A1-l, (E)-3-(4′-Methoxy-5-((4-methylbenzyl)carbamoyl)-[1,1′-biphenyl]-3-yl)acrylic acid], the IC50 on AKR1C3 (setting [1]) is 170 ± 30 nM.
On the same count and under the same terms, the result for `Cc1ccc(CNC(=O)c2cc(/C=C/C(=O)O)cc(-c3ccc(C#N)cc3)c2)cc1` [Compound A1-m, (E)-3-(4′-Cyano-5-((4-methylbenzyl)carbamoyl)-[1,1′-biphenyl]-3-yl)acrylic acid] reads 170 ± 10 nM.
In the case of `Cc1ccc(CNC(=O)c2cc(/C=C/C(=O)O)cc(-c3ccc(Oc4ccccc4)cc3)c2)cc1` [Compound A1-n, (E)-3-(5-((4-Methylbenzyl)carbamoyl)-4′-phenoxy-[1,1′-biphenyl]-3-yl)acrylic acid], the “selectivity over AKR1C2” value on AKR1C3 is given as 51 fold. For the same compound, the half-maximal inhibitory concentration (IC50) at AKR1C3 (setting [1]) is 94 ± 10 nM; on AKR1C2 (setting [2]) it was 4800 ± 1200 nM.
Take `Cc1ccc(CNC(=O)c2cc(/C=C/C(=O)O)cc(-c3ccc(-c4ccccc4)cc3)c2)cc1` [Compound A1-u, (E)-3-(5-((4-Methylbenzyl)carbamoyl)-[1,1′:4′,1″-terphenyl]-3-yl)acrylic acid]: the “Selectivity 1C2:1C3” value at AKR1C3 (Table 2) is listed as 580. The IC50 at AKR1C3 (setting [1]) amounted to 50 ± 4 nM; at AKR1C2 (setting [2]), 29000 ± 4800 nM; on AKR1C4 it was 2400 ± 150 nM.
As to `Cc1ccc(CNC(=O)c2cc(C#Cc3ccccc3)cc(/C=C/C(=O)O)c2)cc1` [Compound A1-w, (E)-3-(3-((4-methylbenzyl)carbamoyl)-5-(phenylethynyl)phenyl)acrylic acid], the “selectivity over AKR1C2” value at AKR1C3 is listed as 61 fold. The IC50 at AKR1C3 (setting [1]) stood at 180 ± 19 nM; on AKR1C2 (setting [2]) it was 11000 ± 3100 nM.
As to `Cc1ccc(CNC(=O)c2cc(/C=C/C(=O)O)cc(CC(C)c3ccccc3)c2)cc1` (stereo not shown) [Compound A1-x, (E)-3-(3-((4-Methylbenzyl)carbamoyl)-5-(2-phenylpropyl)phenyl)acrylic acid], on AKR1C3, the “selectivity over AKR1C2” value is given as 177 fold. The IC50 at AKR1C3 (read-out: IC50 AKR1C3) is 880 nM; at AKR1C2 (setting [2]), 156000 ± 71000 nM.
The corresponding values for `Cc1ccc(CNC(=O)c2cc(/C=C/C(=O)O)cc(-c3ccc(CN4CCOCC4)c(F)c3)c2)cc1` [Compound A1-y, (E)-3-(3′-Fluoro-5-((4-methylbenzyl)carbamoyl)-4′-(morpholinomethyl)-[1,1′-biphenyl]-3-yl)acrylic acid] are 16 fold, 330 nM and 5100 ± 600 nM.
